From patent US20080214509A1, “Methods for enhancing the efficacy of vascular disrupting agents” (priority 2007, published 2008) come the findings set out here.

Experiment [1] concerns CEPs. Kind of experiment: Circulating endothelial progenitor cell (CEP) levels in peripheral blood by flow cytometry, non-tumor bearing mice. It counts as in vivo. As to conditions: non-tumor bearing Balb/c mice; AMD-3100 5 mg/kg, CA1P 100 mg/kg; 4 hours or 24 hours post-treatment; FIG. 1. As to the method: Non-tumor bearing Balb/c mice (8-10 weeks old) were treated with one of the following agents: (i) 5 mg/kg of AMD-3100, a specific CXCR-4 antagonist; (ii) 100 mg/kg of CA1P, a VDA; or (iii) a combination of AMD-3100 and CA1P. At either 4 hours or 24 hours post-treatment, mice were bled from the retro-orbital sinus to evaluate levels of CEPs by flow cytometry.

Experiment [2] has as its system Lewis-Lung Carcinoma (LLC) cells. Briefly: Lewis-Lung Carcinoma tumors in irradiated mice transplanted with GFP+ bone marrow: necrosis and bone marrow cell incorporation. It counts as in vivo. The note with it: LLC tumors in C57Bl mice with GFP+ bone marrow; day 4. The protocol:
To assess the incorporation of bone marrow proangiogenic cells to the tumor site, Lewis-Lung Carcinoma (LLC) cells were implanted into the flanks of lethally irradiated C57Bl mice that were previously transplanted with GFP+bone marrow tagged cells. When tumors reached 500 mm^3, treatment with CA1P, AMD-3100 or the combination of the two was initiated. AMD-3100 was given in a concentration of 5 mg/kg for 3 sequential days. On day 4, mice were sacrificed and tumors removed for the evaluation of bone marrow derived cell (GFP+ cells) invasion and incorporation into tumor blood vessels (CD31+ cells). Tumors were also evaluated for necrosis by green fluorescence, as necrotic tissue is auto-fluorescent under GFP (fluorescent) channel.

Experiment [3] relates to MeWo human melanoma cells. Kind of experiment: MeWo melanoma tumors (500 mm^3) in nude mice: SDF-1/CXCR4 staining, necrosis, hypoxia, perfusion. It counts as in vivo. As to conditions: day 4. As to the method:
MeWo human melanoma cells were implanted subdermally in nude mice. When tumors reached 500 mm^3, treatment with CA1P, AMD-3100 or the combination of the two drugs was initiated. CA1P was given as a single injection and AMD-3100 was given in a concentration of 5 mg/kg for 3 sequential days. On day 4, mice were sacrificed and tumors harvested for evaluation of the expression of human SDF-1 and mouse CXCR4, as well as tumor necrosis, hypoxia and vessel perfusion.
Longitudinal tumor sections were stained for either SDF-1 or mouse CXCR4 expression.
FIG. 2 provides a statistical quantification of the relative necrosis area in all tumors from treated and untreated mice. Hypoxic tumor area and perfused tumor area was also measured for all treated and untreated tumors using pimonidazole and Hoechst staining respectively (see FIG. 3).

Experiment [4] concerns SDF-1. Kind of experiment: Plasma SDF-1 by ELISA in nude mice after VDA treatment. The format is in vivo. As to conditions: both tumor-free and 500 mm^3 MeWo tumor-bearing nude mice; 4 hours after treatment. As to the method: To investigate the possibility that systemic induction of SDF-1 is involved in the acute mobilization of CEPs by VDA treatment, plasma from non-tumor or 500 mm^3 MeWo human melanoma bearing nude mice obtained 4 hours after treatment with CA1P was analyzed for human and mouse SDF-1 using specific ELISAs. From this analysis, it was determined that an acute 2 fold increase in SDF-1 occurs in both tumor-free and tumor-bearing nude mice following CA1P treatment. […] Thus, there is a rapid host proangiogenic reaction in response to VDA treatment similar to that observed in mice.

The test system of experiment [5] is SDF-1. Kind of experiment: Clinical data from cancer patients with advanced solid tumors treated with a VDA. The note with it: 12 cancer patients with advanced solid tumors; 4 hours after treatment. It counts as in vivo, human.
[6] abbreviates: MeWo tumors, CA1P single injection, AMD-3100 5 mg/kg for 3 sequential days.

As to `c1cc(CN2CCCNCCNCCCNCC2)ccc1CN1CCCNCCNCCCNCC1` [AMD-3100, 1,1′-[1,4-phenylenebis(methylene)]-bis-1,4,8,11-tetra-azacyclotetradecane], in experiment [1], the “CEP levels in peripheral blood” value was “rapid and significant increases”.

For the molecule `COc1cc(/C=C\c2ccc(OC)c(OP(=O)(O)O)c2OP(=O)(O)O)cc(OC)c1OC` [CA1P, combretastatin A-1 diphosphate], the “CEP levels in peripheral blood” value in experiment [1] was “rapid and significant increases”. Also, the “bone marrow derived (GFP+) cell homing to tumor site and incorporation into tumor blood vessels (CD31+)” value in experiment [2] is reported as “recruits bone marrow derived proangiogenic cells to tumors”. Further, in experiment [3] (MeWo tumor sections), the “human SDF-1 levels in tumors” value is given as “upregulation” and the “invasion of mouse CXCR4+ cells to the tumor site” value is listed as “invasion of mouse CXCR4+ cells to the tumor site”. In experiment [3] (setting [6]), the “tumor hypoxia (pimonidazole staining)” value is given as around 12%, the “tumor necrosis (area of total tumor area)” value is reported as around 30% and the “tumor perfusion (Hoechst staining)” value is around 7%. Moreover, the “increase in plasma SDF-1” value in experiment [4] is given as 2 fold.

As for `COc1ccc(/C=C\c2cc(OC)c(OC)c(OC)c2)cc1OP(=O)(O)O` [CA4P, combretastatin A-4 phosphate], in experiment [5], the “circulating SDF-1 plasma levels” value is listed as “substantially increased”; the “number of CD133 and CD34 positive cells” value is “substantially increased”.
